# Results: patent US7186703B2, “Derivatives of branched-chain lipophilic molecules and uses thereof” (D-Pharm Ltd., priority 2000, dated 2007)
# Where “and” joins values, the source holds several entries; their conditions need not be identical. Equal values may be shown once.
# Experiments:
# [1] = tested on: Caco-2 colon cancer cell line; test: MTT cytotoxicity, Caco-2; assay type: cell-based, human; conditions: Caco-2, three days, read-out: EC50 (50% reduction in cell viability)
# Experimental: (§1) The cytotoxic activity of various phospho-derivatives of branched-chain fatty acids (DP-BFAs) was assayed in vitro in cell cultures that include normal and malignant cell types. The following cell systems were used: • Primary fibroblasts (human) • Normal bone marrow (BM) cells (mouse) • Primary bronchial epithelial cells (human, from Clonetics, cat. no. CC-2541) • Caco-2—colon cancer cell line (human, ATTC, HTB-37) • C6 glioma cell line (rat, ATCC, CRL-2199) • Neuro2a—neuroblastoma cell line (mouse, ATCC, CCL-131) • SKBR-3—breast cancer cell line (human, ATTC, HTB-30) • HL60—myeloid leukemia cell line (human, ATCC, CCL-240) • U937—myeloid leukemia cell line (human)
# (§2) Cells were seeded in a microtiter plate in MEM containing 2 mM L-glutamine, 100 units/ml penicillin, 100 ug/ml streptomycin and 10% FCS at 37° C. The cultured cells were incubated, during their linear growth phase in the absence (control group) or presence of various DP-BFAs as indicated. The final concentrations of the tested DP-BFAs ranged from 1.5 to 200 microMolars. At the end of the incubation period, which was five days for the bone marrow cells and three days for all the other cell lines, the cytotoxic effect of the added P-BFA on the cells was estimated by using the colorimetric MTT assay. The MTT assay (Mosmann (1983) J. Immunol Methods 65: 55–63) measures mitochondrial reductase activity and serves for quantitative assessment of cellular viability. Drug concentration that causes 50% reduction in cell viability in comparison to the control group, is defined as EC50. The EC50 values of the tested DP-BFA compounds were calculated from dose response curves established for each of the different assayed cell lines.
# (§3) Each EC50 value is an average of EC50 values derived from 1–5 independent experiments.
# [2] = tested on: C6 glioma cell line; test: MTT cytotoxicity, C6 glioma; assay type: cell-based, rat; conditions: three days, read-out: EC50 (50% reduction in cell viability)
# Experimental: as §1, §2, §3
# [3] = tested on: Neuro2a neuroblastoma cell line; test: MTT cytotoxicity, Neuro2a; assay type: cell-based, mouse; conditions: three days, read-out: EC50 (50% reduction in cell viability)
# Experimental: as §1, §2, §3
# [4] = tested on: SKBR-3 breast cancer cell line; test: MTT cytotoxicity, SKBR-3; assay type: cell-based, human; conditions: three days, read-out: EC50 (50% reduction in cell viability)
# Experimental: as §1, §2, §3
# [5] = tested on: U937 myeloid leukemia cell line; test: MTT cytotoxicity, U937; assay type: cell-based, human; conditions: U937, three days, read-out: EC50 (50% reduction in cell viability)
# Experimental: as §1, §2, §3
# [6] = tested on: Primary fibroblasts; test: MTT cytotoxicity, normal primary fibroblasts; assay type: cell-based, human; conditions: three days, read-out: EC50 (50% reduction in cell viability)
# Experimental: as §1, §2, §3
# [7] = tested on: Normal bone marrow (BM) cells; test: MTT cytotoxicity, normal bone marrow cells; assay type: cell-based, mouse; conditions: five days, read-out: EC50 (50% reduction in cell viability)
# Experimental: as §1, §2, §3
# [8] = tested on: Primary bronchial epithelial cells; test: MTT cytotoxicity, normal primary epithelial cells; assay type: cell-based, human; conditions: Normal primary epithel, three days, read-out: EC50 (50% reduction in cell viability)
# Experimental: as §1, §2, §3
# [9] = tested on: blood brain barrier (BBB); test: BBB permeabilization in rats, Evans blue extravasation into brain; assay type: in vivo, Sprague-Dawley rats; conditions: Table 6; for μg EB/g brain (at EC50): at EC50 (Mannitol at 25%)
# Source text: Permeabilization of the BBB by DP-BFA was investigated in rat model system by monitoring accumulation in the brain of two markers: a) Evans blue dye (EB), which rapidly binds in vivo with albumin (NW 70 kD) and is an indicator for paracellular transport; and b) Fluorescein sodium salt (F—Na), MW 376 D, which is transported via the cellular space, and enables monitoring transcellular transport. Upon BBB disruption the Evans blue-albumin complex irreversibly accumulates in the intercellular space of the brain. The much smaller tracer fluorescein may be transported intracellularly to occupy both inter and intracellular space in the brain.
# Blood brain barrier permeabilization in Sprague-Dawley rats was induced by brief exposure to DP-BFA. The animals were anesthetized with Rampun-Imalgen and DP-BFA test compounds were administered via the external carotid artery retrograde to the brain (Smith, Q. R. Methods of study. In: Physiology and Pharmacology of the Blood-Brain Barrier. Ed. Bradbury M. W. B. Spinger-Verlag. Berlin-Heidelberg-NY; 1992: 24–52). The pterygo-palathina artery was ligated to avoid escape of infused solutions towards the external head vasculature. DP-BFA solutions were infused over a period of 30 seconds or half an hour, using a Harvard Apparatus Syringe Pump. Blood flow through carotid communis artery was interrupted only at the time of infusion.
# All tested DP-BFA molecules were prepared from stock solutions in either water or ethanol by diluting 200–1000 fold into solution of isosmotic mannitol (5%) in Tromethamine buffer (Sigma) or PBS (pH 7.4)
# The markers, Evans blue (EB, 25 mg/ml) and fluorescein (F—Na, 12.5 mg/ml), in 1 ml solution, were injected intravenously immediately following administration of the tested DP-BFA, or after a specific time interval if reversibility of action was investigated. Supportive i.v. infusion of F—Na (12.5 mg/ml–100 μl/min) was performed for 8 minutes. Brains were washed with saline solution (60 ml) 10 min after the intracarotid “flash”. Brain ipsilateral and contralateral hemispheres and tumors, where applicable, were homogenized separately with 50% trichloroacetic acid (TCA). The markers concentrations in the cortex and in tumors, where, applicable, were determined spectrofluorometrically (Uyama, O. et al., (1988) J. Cereb. Blood Flow Metab. 8, 282–284: Abraham et al., (1996) Neurosci. Lett. 208, 85–88). The markers content was calculated as μg marker per one-gram brain tissue. Standard error and Student's test for statistical significance were used.
# The experiment was carried out on male Sprague-Dawley rats weighing 250–320 g. The procedure described above in Example 17 was followed.
# The effect of the tested compounds on the BBB opening was evaluated by two parameters:
# a) efficacy—The degree of BBB opening estimated in terms of accumulation of Evans Blue albumin (μg EB/g brain tissue); and
# b) potency—measured in terms of EC50 and minimal effective concentration (MEC) values. EC50 is the concentration of a tested compound producing 50% of the maximal effect of Evans Blue extravasation.
# The effect of various DP-BFAs on BBB permeability was tested in the model system of rat brains, as described above in Example 17. Efficacy, namely the level of the BBB opening was expressed as the amount of Evans blue accumulated in the brain (μg EB/g brain). Potency of the tested molecules was estimated by their calculated EC50 and minimal effective concentration (MEC) values.
# [10] = tested on: blood brain barrier (BBB); test: BBB permeability to EB-albumin and Fluorescein in normal rat brains; assay type: in vivo; conditions: compounds at EC50 (Mannitol 25%); for % EB/g brain: control 0.04 ± 0.01; for Brain fluorescein uptake (% of serum F-Na level): control 0.3 ± 0.08; for Ratio F-Na/EB (mean of individual ratios): control 9.5 ± 1.6
# Source text: The effect of various DP-BFAs on BBB permeabilization to molecules of different sizes was examined in vivo in the model system of normal rat brains.
# The transport of two markers was followed: a) Evans blue bound to albumin (MW 70 kD) as an indicator for paracellular transport; and b) Fluorescein sodium salt (MW 376 D) that represents small size molecules.
# The Evans blue dye (EB) and Fluorescein sodium salt (F—Na) were infused into the artery carotis externa over 30 seconds according to the protocol described above in Example 17. The test compounds were used at their EC50 concentrations. Control animals were treated with vehicle solution.
# Evans blue extravasation is expressed as the percentage of the total amount of EB accumulated per one gram of brain tissue. The transport of fluorescein into the brain, which is dependent on the serum concentration of this molecule, is presented as percentage of the F—Na level in the serum.
# [11] = tested on: blood tumor barrier (BTB) of C6 glioma; test: BTB opening in C6 glioma-bearing rats, Evans blue accumulation in tumor; assay type: in vivo, Sprague Dawley rats; conditions: for Specificity Tumor/Non-tumor (T/NT): ratio of EB accumulated in tumor and non-tumor brain
# Experimental: (§4) In order to study the ability of DP-BFA compounds to modulate blood tumor barrier (BTB), a model system of C6 glioma-bearing rats, was employed.
# (§5) Sprague Dawley (SD) rats were inoculated with C6 gliosarcoma cells following the procedure described by Bartus et al. (Exp Neurol (1996); 142:14–28). A small burr-hole was made in the frontal scalp bone of the rat fixed in a stereotaxis apparatus. Using a Hamilton syringe, 10 μl or 5 μl of media, containing 2.5×10^5 C6 gliosarcoma cells were inoculated into the frontal cortex. Coordinates were 1 mm posterior of bregma, 2.5 mm—lateral, and 3 mm—depth. The needle remained in the place for 5 min. After removal of the needle, fascia and scalp were sutured. The rats were checked 6–8 days after inoculation, when tumors of sufficient size (20–60 mg) had developed. The tumor was weighed after F—Na visualization and dissection. Parts of the rats' brains were subject to histological examinations and monitored for Evans Blue and Fluorescein uptake into ipsilateral tumour tissue, peritumoural tissue and contralateral tissue.
# (§6) The bilateral tumor model system of C6 glioma-bearing rats described in Example 23 above was employed for screening of various derivatives of DP-BFA for their ability to permeabilize the blood brain barrier (BBB) in comparison to their effect on the blood tumor barrier (BTB). The experimental procedure described in Example 23 was followed except that the tumor-bearing rats were further treated with DP-BFA. The tested compounds, at concentrations around their EC50 values, were unilaterally infused into the external carotis artery over 30 seconds as described in Example 17. Animals treated with vehicle only serve as a control group. Permeabilization effect was quantitated by measuring accumulation of albumin bound Evans blue dye in tumor (T) versus non-tumor (NT) tissues.
# (§7) Specificity index is defined as the ratio between the levels of EB accumulated in tumor and those accumulated in non-tumor brain tissues (T/NT).
# [12] = tested on: blood brain barrier (BBB); test: BBB opening in C6 glioma-bearing rats, Evans blue accumulation in non-tumor brain; assay type: in vivo, Sprague Dawley rats; conditions: concentrations around EC50 (Mannitol 25%), unilateral 30 s infusion
# Experimental: as §4, §5, §6, §7
# [13] = tested on: blood tumor barrier / blood brain barrier; test: Unilateral administration in rats with bilateral C6 gliomas, Evans blue staining of brain sections; assay type: in vivo, SD rats; conditions: 10 μM 3,12-DEG-HPO4Na; 40 μM 3,12-Na; 25% mannitol; unilateral infusion
# Experimental: FIGS. 2A–C depict Evans blue accumulation in brain sections of rats bearing bilateral gliomas following unilateral administration of a compound as follows: 10 μM 3,12-DEG-HPO4Na (FIG. 2A), 40 μM 3,12-Na (FIG. 2B) or mannitol 25% (FIG. 2C).
# Evans Blue and Fluoroscein penetration into gliomas tumors was examined following unilateral infusion into the external carotis artery of either 10 μM 3,12-DEG-HPO4Na (FIG. 2A), 40 μM 3,12-Na BFA (FIG. 2B) or 25% mannitol (FIG. 2C). The relevant compound was infused into rat brains at 9 to 12 days following inoculation of C6 glioma cells as described in Example 23.
smiles,measurement,setting,value
"CCCCCCCCCCCCC(CCC)OCCOCCOP(=O)([O-])[O-].[Na+].[Na+] (stereo not drawn) [3,12-(ether)-DEG-PO4Na2, 2(4-Hexadecanoxy)ethoxyethyl Disodium Phosphate]",EC50,[1],47 µM
same,EC50,[2],40 µM
same,EC50,[3],37 µM
same,EC50,[4],58 µM
same,EC50,[5],10 µM
same,EC50,[6],65 µM
same,EC50,[7],68 µM
same,EC50,[8],> 200 µM
same,μg EB/g brain (at EC50),[9],26 μg EB/g brain and 26 ± 5.2 μg EB/g brain
same,MEC (minimal effective concentration),[9]; concentration giving 3 μg EB/g brain,7.3 ± 1.4 µM
same,EC50,"[9]; rat brains, Evans blue extravasation, read-out: EQ50 (the source's name)",54 ± 5 µM
same,% EB/g brain,[10],4 ± 0.8%
same,Brain fluorescein uptake (% of serum F-Na level),[10],4.4 ± 0.9 % of the F—Na level in the ser
same,Ratio F-Na/EB (mean of individual ratios),[10],1.1 and 1.1 ± 0.2
"OC[C@@H](O)[C@@H](O)[C@H](O)[C@H](O)CO [Mannitol, mannitol, reference compound]",μg EB/g brain (at EC50),[9],10 ± 2 μg EB/g brain
same,% EB/g brain,[10],0.6 ± 0.21%
same,Brain fluorescein uptake (% of serum F-Na level),[10],2.4 ± 0.4 % of the F—Na level in the ser
same,Ratio F-Na/EB (mean of individual ratios),[10],4.0 ± 0.5
same,Ratio F-Na/EB (mean of individual ratios),[10]; listed as mannitol,4
same,BTB EB μg/g Tumor,"[11]; concentrations around EC50 (Mannitol 25%), unilateral 30 s infusion",12 ± 2 µg/g
same,Specificity Tumor/Non-tumor (T/NT),[11],2.1 ± 0.5
same,Specificity Tumor/Non-tumor (T/NT),[11]; listed as mannitol,about twice
same,BBB EB μg/g Non-tumor brain,[12],7 ± 2 µg/g
same,"Evans Blue staining of tumor and non-tumor brain (FIG. 2, in words)",[13],equally permeabilized tumor and non-tumor brain tissues
